Test results as given in ChEMBL document CHEMBL1150541, “Penem inhibitors of bacterial signal peptidase” (Bioorg Med Chem Lett, 1995).
Where a SMILES comes first, the peptide text is derived from it.

Tests used:
[1] = target: Signal peptidase I (Escherichia coli K-12, UniProt P00803); test: Inhibitory activity against Escherichia coli leader peptidase using substrate A; details: read-out: I50
[2] = target: Signal peptidase I (Escherichia coli K-12) (UniProt P00803); test: Inhibitory activity against Escherichia coli leader peptidase at a concentration of 100 uM
[3] = system: Escherichia coli; details: 100 uM
[4] = Inhibitory activity against Escherichia coli leader peptidase using substrate B; details: read-out: I50
[5] = system: Escherichia coli; test: Compound was evaluated for Michaelis-Menten constant (Km)
[6] = Inhibitory activity against Escherichia coli leader peptidase using substrate A.; details: read-out: I50

Chain of Signal peptidase I (P00803 whole entry): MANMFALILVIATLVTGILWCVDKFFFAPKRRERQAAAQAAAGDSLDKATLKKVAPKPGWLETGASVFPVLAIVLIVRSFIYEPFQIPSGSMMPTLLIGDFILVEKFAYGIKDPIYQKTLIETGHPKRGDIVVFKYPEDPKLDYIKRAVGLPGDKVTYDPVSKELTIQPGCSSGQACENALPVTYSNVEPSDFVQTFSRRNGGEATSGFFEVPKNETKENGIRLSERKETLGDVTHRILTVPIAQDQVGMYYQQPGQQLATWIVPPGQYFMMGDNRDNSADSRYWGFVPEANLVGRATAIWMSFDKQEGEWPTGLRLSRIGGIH
Chain of Signal peptidase I (Escherichia coli K-12) (P00803 whole entry): as above

In the case of CN(Cc1ccccc1)C(=O)C1=CSC2CC(=O)N12 (stereo not drawn), the IC50 [1] is reported as 50 µM and the inhibition [2] is reported as 88%.
O=C(OCc1ccccc1)C1=CS[C@H]2CC(=O)N12 showed an IC50 [1] of 3 µM and an inhibition [2] of 100%.
In the case of O=C(OCc1ccccc1)C1=CSC2CC(=O)N12 (stereo not drawn), the IC50 [1] is reported as 10 µM and the inhibition [3] is reported as 100%.
For O=C(Nc1ccccc1)C1=CSC2CC(=O)N12 (stereo not drawn), the IC50 [1] was 58 µM and the inhibition [2] was 86%.
Compound COc1ccc(NC(=O)C2=CSC3CC(=O)N23)cc1 (stereo not drawn) has an IC50 [1] of 87 µM and an inhibition [2] of 77%.
Compound C=CCOC(=O)C1=CS[C@H]2[C@@H]([C@@H](C)OC(C)=O)C(=O)N12 [listing 1 of 3 here] has an IC50 [1] of 1.8 µM.
C=CCOC(=O)C1=CS[C@H]2[C@@H](CC)C(=O)N12 showed an IC50 [1] of 20 µM and an inhibition [2] of 84%.
Work on COc1ccc(COC(=O)C2=CS[C@@H]3CC(=O)N23)cc1 yielded an inhibition [2] of 0%.
With CCCCCOC(=O)C1=CSC2CC(=O)N12 (stereo not drawn) the IC50 [1] was 21 µM and the inhibition [2] was 100%.
Work on CCCCCCCCCCCCCCCCOC(=O)C1=CSC2CC(=O)N12 (stereo not drawn) yielded an inhibition [2] of 0%.
For O=C(OCc1ccc([N+](=O)[O-])cc1)C1=CSC2CC(=O)N12 (stereo not drawn), the IC50 [1] was 50 µM and the inhibition [2] was 85%.
Work on O=C(OCc1ccccc1)C1=CS[C@@H]2CC(=O)N12 yielded an inhibition [2] of 0%.
With O=C(NCc1ccccc1)C1=CSC2CC(=O)N12 (stereo not drawn) the inhibition [2] was 34%.
For COC(=O)c1ccc(COC(=O)C2=CSC3CC(=O)N23)cc1 (stereo not drawn), the IC50 [1] was 3 µM and the inhibition [2] was 100%.
Work on O=C(OCCCCc1ccccc1)C1=CSC2CC(=O)N12 (stereo not drawn) yielded an IC50 [1] of 13 µM and an inhibition [2] of 83%.
Work on C=CCOC(=O)C1=CS[C@@H]2[C@@H](CC)C(=O)N12 yielded an inhibition [2] of 19%.
For C=CCOC(=O)C1=CS[C@H]2[C@@H]([C@H](C)OC(C)=O)C(=O)N12, the inhibition [2] was 0%.
Work on C=CCOC(=O)C1=CS[C@H]2[C@@H]([C@@H](C)OC(C)=O)C(=O)N12 [listing 2 of 3 here] yielded an IC50 [1] of 0.85 µM and an IC50 [4] of 70 nM.
C=CCOC(=O)C1=CS[C@@H]2[C@@H]([C@@H](C)OC(C)=O)C(=O)N12 gave an inhibition [2] of 64%.
Compound CC(C)(C)NC(=O)C1=CSC2CC(=O)N12 (stereo not drawn) has an inhibition [2] of 0%.
COC(=O)C1=CSC2CC(=O)N12 (stereo not drawn) showed an IC50 [1] of 4 µM and an inhibition [2] of 100%.
For CC[C@H](C)[C@H](NC(=O)[C@H](CCCCN)NC(=O)[C@H](C)NC(=O)[C@H](CC(C)C)NC(=O)[C@H](C)NC(=O)[C@H](CO)NC(=O)[C@H](C)NC(=O)[C@H](CO)NC(=O)[C@@H](N)Cc1ccccc1)C(N)=O (H-FSASALAKI-NH2), the Km [5] was 1000 µM.
With C=CCOC(=O)C1=CS[C@H]2[C@@H]([C@@H](C)O)C(=O)N12 the IC50 [1] was 0.92 µM, the inhibition [2] was 100% and the IC50 [4] was 180 nM.
Compound O=C(C1=CSC2CC(=O)N12)N1CCCC1 (stereo not drawn) has an inhibition [2] of 93% and an IC50 [6] of 10 µM.
Work on O=C(C1=CSC2CC(=O)N12)N1CCOCC1 (stereo not drawn) yielded an IC50 [1] of 115 µM and an inhibition [2] of 79%.
Compound COCOC(=O)C1=CSC2CC(=O)N12 (stereo not drawn) has an IC50 [1] of 6 µM and an inhibition [2] of 100%.
C=CCOC(=O)C1=CSC2CC(=O)N12 (stereo not drawn) gave an IC50 [1] of 10 µM and an inhibition [2] of 93%.
Compound O=C(O)C1=CSC2CC(=O)N12 (stereo not drawn) has an IC50 [1] of 600 µM and an inhibition [2] of 0%.
With C=CCOC(=O)C1=CS[C@@H]2[C@@H]([C@H](C)OC(C)=O)C(=O)N12 the inhibition [2] was 0%.
In the case of COC(=O)c1cccc(COC(=O)C2=CSC3CC(=O)N23)c1 (stereo not drawn), the IC50 [1] is reported as 8 µM and the inhibition [2] is reported as 72%.
With C=CCOC(=O)C1=CS[C@@H]2[C@H]([C@H](C)OC(C)=O)C(=O)N12 the inhibition [2] was 20%.
CCN(CC)C(=O)C1=CSC2CC(=O)N12 (stereo not drawn) gave an IC50 [1] of 58 µM and an inhibition [2] of 86%.
CC[C@H](C)[C@H](NC(=O)[C@H](CCCCN)NC(=O)[C@H](C)NC(=O)[C@H](CC(C)C)NC(=O)[C@H](C)NC(=O)[C@H](CO)NC(=O)[C@H](C)NC(=O)[C@H](CO)NC(=O)[C@@H](N)Cc1c[nH]c2ccccc12)C(N)=O (H-WSASALAKI-NH2) gave a Km [5] of 300 µM.
In the case of O=C(OCc1ccc(C(=O)O)cc1)C1=CSC2CC(=O)N12 (stereo not drawn), the inhibition [2] is reported as 31%.
With COc1ccc(COC(=O)C2=CSC3CC(=O)N23)cc1 (stereo not drawn) the IC50 [1] was 7 µM and the inhibition [2] was 100%.
C=CCOC(=O)C1=CS[C@H]2[C@@H]([C@@H](C)OC(C)=O)C(=O)N12 [listing 3 of 3 here] gave an inhibition [2] of 100%.
